Measured values reported in the OligoGym collection.
After the bases stand the sugars from the 5' end (letter, count) and the backbone: PS all phosphorothioate, else s phosphorothioate and o phosphodiester by linkage. Methylation of C is not given here. e = 2'-O-(2-methoxyethyl) (MOE); k = constrained ethyl (cEt); d = 2'-deoxy (DNA); m = 2'-O-methyl

Target: HSD17B13
Conditions: ASO, HepaRG

| Sequence | target mRNA inhibition (1 µM) | further results |
| --- | --- | --- |
| AGTCTTAAACCTTCCC (sugars k3 d10 k3, PS) | 77% | target mRNA inhibition (0.02 µM): 0%; target mRNA inhibition (0.078 µM): 0%; target mRNA inhibition (0.313 µM): 21%; target mRNA inhibition (1.25 µM): 65%; target mRNA inhibition (5 µM): 85% |
| AGTCUTAAACCTTCCC (sugars k3 d1 m1 d8 k3, PS) | 52% |  |
| AGTGCATCTTAAGATA (sugars kkdddddddddkekek, PS) | 27% |  |
| AGTTAGTATAGTTATC (sugars k3 d1 m1 d8 k3, PS) | 42% |  |
| AGTTATTCTCTTGACA (sugars k3 d10 k3, PS) | 48% |  |
| AGTTCTGATGTCAGAC (sugars k3 d10 k3, PS) | 40% |  |
| AGTTGCACCGTTTTGG (sugars k3 d1 m1 d8 k3, PS) | 38% |  |
| AGTTGCACCGTTTTGG (sugars k3 d9 k3 e1, PS) | 43% |  |
| AGTTGCACCGTTTTGG (sugars k3 d10 k3, PS) | 55% |  |
| AGTTGCACCGTTTTGG (sugars kkdddddddddkekek, PS) | 41% |  |
| ATAAAAATTGGCCTCC (sugars k3 d10 k3, PS) | 41% |  |
| ATAAACATAGGCTTAG (sugars k3 d10 k3, PS) | 41% |  |
| ATAACTACAAGAGGTT (sugars k3 d1 m1 d8 k3, PS) | 61% |  |
| ATAACTACAAGAGGTT (sugars kkdddddddddkekek, PS) | 46% |  |
| ATAACTACATGACCTG (sugars k3 d10 k3, PS) | 29% |  |
| ATAAGAAGAGAGCTCA (sugars k3 d10 k3, PS) | 14% |  |
| ATAAGTAGATGGTAAG (sugars k3 d10 k3, PS) | 58% |  |
| ATAATAGCTCTATTGG (sugars k3 d10 k3, PS) | 46% |  |
| ATACATCAACTCCTCT (sugars k3 d10 k3, PS) | 64% | target mRNA inhibition (0.02 µM): 0%; target mRNA inhibition (0.078 µM): 9%; target mRNA inhibition (0.313 µM): 26%; target mRNA inhibition (1.25 µM): 63%; target mRNA inhibition (5 µM): 83% |
| ATACATTAGCAAGCTA (sugars k3 d9 k3 e1, PS) | 48% |  |
| ATACATTAGCAAGCTA (sugars kkdddddddddkekek, PS) | 22% |  |
| ATACTATTCTCCAACT (sugars k3 d10 k3, PS) | 25% |  |
| ATAGAGTCGGTCACCT (sugars k3 d1 m1 d8 k3, PS) | 50% |  |
| ATAGAGTCGGTCACCT (sugars k3 d9 k3 e1, PS) | 67% |  |
| ATAGGACATGGAGACA (sugars k3 d10 k3, PS) | 82% | target mRNA inhibition (0.02 µM): 14%; target mRNA inhibition (0.078 µM): 18%; target mRNA inhibition (0.313 µM): 48%; target mRNA inhibition (1.25 µM): 74%; target mRNA inhibition (5 µM): 79% |

| Sequence | target mRNA inhibition (1 µM) | further results |
| --- | --- | --- |
| ATAGGCAGTAAAGTGC (sugars k3 d10 k3, PS) | 56% |  |
| ATAGGGAGACCATGCT (sugars k3 d10 k3, PS) | 64% |  |
| ATAGTAATTGCTATAG (sugars k3 d10 k3, PS) | 36% |  |
| ATAGTCCATGCAAAAG (sugars kkdddddddddkekek, PS) | 31% |  |
| ATATACAGACTAAGGG (sugars k3 d10 k3, PS) | 24% |  |
| ATATAGCCCTTTCCCC (sugars k3 d10 k3, PS) | 26% |  |
| ATATCAATGCCTTAGC (sugars k3 d10 k3, PS) | 32% |  |
| ATATGTCCAGGTTGAG (sugars k3 d10 k3, PS) | 61% |  |
| ATATUCTGTGGCATGG (sugars k3 d1 m1 d8 k3, PS) | 63% |  |
| ATCAATTTATCATACC (sugars k3 d10 k3, PS) | 11% |  |
| ATCAGACTTCTTACGA (sugars k3 d10 k3, PS) | 45% |  |
| ATCATATGCTAAGTGC (sugars k3 d10 k3, PS) | 73% | target mRNA inhibition (0.02 µM): 0%; target mRNA inhibition (0.078 µM): 11%; target mRNA inhibition (0.313 µM): 48%; target mRNA inhibition (1.25 µM): 71%; target mRNA inhibition (5 µM): 82% |
| ATCCCACAGAACCAAT (sugars k3 d10 k3, PS) | 34% |  |
| ATCCCCTAAGTTATTA (sugars k3 d10 k3, PS) | 13% |  |
| ATCCTTGGTGCTGAGA (sugars k3 d10 k3, PS) | 13% |  |
| ATCTAACTAACCTGAC (sugars k3 d10 k3, PS) | 0% |  |
| ATCTATCATGCCTTCC (sugars k3 d10 k3, PS) | 6% |  |
| ATCTCACAAGGGAAAT (sugars k3 d10 k3, PS) | 73% |  |
| ATCTCTGGGACCAAGG (sugars k3 d10 k3, PS) | 72% | target mRNA inhibition (0.02 µM): 0%; target mRNA inhibition (0.078 µM): 0%; target mRNA inhibition (0.313 µM): 57%; target mRNA inhibition (1.25 µM): 78%; target mRNA inhibition (5 µM): 93% |
| ATCTCTTAGCTGTGCA (sugars k3 d10 k3, PS) | 63% |  |
| ATCTGTCTCCAATACA (sugars k3 d10 k3, PS) | 55% |  |
| ATCTTAAGATACCCAG (sugars k3 d10 k3, PS) | 70% |  |
| ATCTTAAGATACCCAG (sugars kkdddddddddkekek, PS) | 45% |  |
| ATCTUAAGATACCCAG (sugars k3 d1 m1 d8 k3, PS) | 55% |  |
| ATGAAGTTAGTATAGT (sugars kkdddddddddkekek, PS) | 34% |  |

| Sequence | target mRNA inhibition (1 µM) | further results |
| --- | --- | --- |
| ATGAGTAGGCAACTGA (sugars k3 d10 k3, PS) | 61% |  |
| ATGATAATTTGGTGTC (sugars k3 d10 k3, PS) | 55% |  |
| ATGCATTAAAACTCTC (sugars k3 d10 k3, PS) | 12% |  |
| ATGCTACTTGAACAGT (sugars kkdddddddddkekek, PS) | 54% |  |
| ATGCUACTTGAACAGT (sugars k3 d1 m1 d8 k3, PS) | 46% |  |
| ATGGCTACAGATTGGA (sugars k3 d1 m1 d8 k3, PS) | 44% |  |
| ATGGTAAGCCCCATGC (sugars k3 d10 k3, PS) | 22% |  |
| ATGTAATAGCCAGTAC (sugars k3 d10 k3, PS) | 52% |  |
| ATGTAGTGTTTACAAG (sugars k3 d10 k3, PS) | 58% |  |
| ATGTATCTTATAAGAC (sugars k3 d1 m1 d8 k3, PS) | 3% |  |
| ATGTATCTTATAAGAC (sugars k3 d10 k3, PS) | 0% |  |
| ATGTCCTAGGATGTTG (sugars k3 d10 k3, PS) | 50% |  |
| ATGTGAAGAGCTGGTA (sugars kkdddddddddkekek, PS) | 54% |  |
| ATGTTATCTCAAGTCA (sugars k3 d10 k3, PS) | 79% |  |
| ATGTTTATGTAAGCAC (sugars k3 d9 k3 e1, PS) | 73% | target mRNA inhibition (0.02 µM): 6%; target mRNA inhibition (0.078 µM): 0%; target mRNA inhibition (0.313 µM): 39%; target mRNA inhibition (1.25 µM): 66%; target mRNA inhibition (5 µM): 70% |
| ATGTUTATGTAAGCAC (sugars k3 d1 m1 d8 k3, PS) | 45% |  |
| ATTAAGCAGAATTGTG (sugars k3 d10 k3, PS) | 8% |  |
| ATTACATATCAATGCC (sugars k3 d10 k3, PS) | 36% |  |
| ATTAGAAGTCAGCCCA (sugars k3 d10 k3, PS) | 42% |  |
| ATTATATGAGGTCTGT (sugars k3 d10 k3, PS) | 59% |  |
| ATTATGAGGATCTGGA (sugars k3 d10 k3, PS) | 49% |  |
| ATTATGTGATTGAGTT (sugars k3 d10 k3, PS) | 46% |  |
| ATTCACCACGATTGTT (sugars k3 d10 k3, PS) | 0% |  |
| ATTCGAAACTATTCAT (sugars k3 d10 k3, PS) | 24% |  |
| ATTCGAATTTCTTCAA (sugars k3 d10 k3, PS) | 65% |  |

| Sequence | target mRNA inhibition (1 µM) | further results |
| --- | --- | --- |
| ATTCTGTGGCATGGCT (sugars k3 d9 k3 e1, PS) | 68% |  |
| ATTCTGTGGCATGGCT (sugars kkdddddddddkekek, PS) | 55% |  |
| ATTGATATACGATGGA (sugars k3 d10 k3, PS) | 31% |  |
| ATTGCAGTTATTAGAA (sugars k3 d10 k3, PS) | 42% |  |
| ATTGGTAAGTATTCCA (sugars k3 d10 k3, PS) | 50% |  |
| ATTGTCTAAACATCTC (sugars k3 d9 k3 e1, PS) | 71% |  |
| ATTGTTAGCTAAGGGA (sugars k3 d10 k3, PS) | 22% |  |
| ATTGTTTAGCTGATAG (sugars k3 d10 k3, PS) | 61% |  |
| ATTTAGAATACGCTGA (sugars k3 d10 k3, PS) | 19% |  |
| ATTTATTGGTATGGTA (sugars k3 d10 k3, PS) | 46% |  |
| ATTTATTTGCTGGTCC (sugars k3 d10 k3, PS) | 47% |  |
| ATTTTACTGGGATACT (sugars k3 d10 k3, PS) | 49% |  |
| ATTTTTAATACGACTT (sugars k3 d10 k3, PS) | 35% |  |
| CAAAAGACTTTGAGAC (sugars k3 d1 m1 d8 k3, PS) | 25% |  |
| CAAAAGTGTCCTCGAT (sugars k3 d10 k3, PS) | 5% |  |
| CAAACTGCTACTGTGT (sugars k3 d10 k3, PS) | 57% |  |
| CAACGACTCCAAGTAG (sugars k3 d10 k3, PS) | 0% |  |
| CAACTTTTAGTCAGGT (sugars k3 d10 k3, PS) | 66% |  |
| CAAGAGGATAGTCCAT (sugars k3 d9 k3 e1, PS) | 64% |  |
| CAAGGGAACACTGTCA (sugars k3 d10 k3, PS) | 58% |  |
| CAAGTAGGAGTAGATG (sugars k3 d10 k3, PS) | 5% |  |
| CAAGTTTTCACCTCAG (sugars k3 d10 k3, PS) | 93% | target mRNA inhibition (0.02 µM): 17%; target mRNA inhibition (0.078 µM): 41%; target mRNA inhibition (0.313 µM): 75%; target mRNA inhibition (1.25 µM): 92%; target mRNA inhibition (5 µM): 95% |
